Results taken from US11517554B2, “Method for preventing or treating Alzheimer's disease” (OLATEC THERAPEUTICS LLC, priority 2018, dated 2022).

Experiments:
[1] = test system: APP/PS1 mice hippocampal slices, Schaffer collateral CA3 to CA1 pathway; assay: Long-term potentiation (LTP) in acute hippocampal slices of APP/PS1 mice; type: in vivo; details: for normalized mean LTP of last 5 minutes of recording: APP/PS1 mice, 55-60 min after TBS, APP/PS1 untreated 1.303, wildtype 1.553
Method: (§1) In the study design, 6-month-old wild-type (WT), and AD transgenic APP/PS1[deltaE9] mice were treated with oral dapansutrile via feed pellets ad libitum (approximately 0, 50 or 100 mg/kg/day based on feed concentrations of 0, 3.75 or 7.5 g/kg and food consumption of 4 g/day) for the treatment duration of 3 months. At 9 months old, behavior testing of the mice was performed. In addition, the brains of the mice were extracted, and blood samples were collected. The brains of the mice from each group were performed for electrophysiological and neuronal morphological analysis, cytokine levels and other assays.
Given the observed recovery in the impaired learning and memory processes in APP/PS1 mice treated with 1000 mg/kg/day dapansutrile (Example 5), we were interested in determining whether hippocampal network function would be recovered following medium dose of dapansutrile administration. For this purpose, we analyzed synaptic plasticity at the Schaffer collateral pathway connecting the CA3 with the CA1 subfield, one of the most extensively studied synapses in the central nervous system. Long-term potentiation (LTP) as a cellular correlation of learning processes at the Schaffer collateral CA3 to CA1 pathway was induced by theta-burst stimulation (TBS) after 20 min of baseline recording.
Acute hippocampal slices were prepared from mice in four groups including wild-type, APP/PS1, APP/PS1 treated with 500 mg/kg/day and APP/PS1 treated with 1000 mg/kg/day of dapansutrile. Briefly, mice were deeply anesthetized with 100% CO2, killed, and then brains were quickly removed and transferred into ice-cold carbogenated (95% O2 and 5% CO2) artificial CSF (ACSF) solution. Afterward, the hippocampus was dissected and transverse hippocampal slices (400 μm) were obtained using a manual tissue chopper. The hippocampal slices were transferred to an interface recording chamber, where they were incubated at 32° C. with a constant flow rate (0.5 ml/min) of carbogenated ACSF for 2 h before the start of recordings. Field excitatory post synaptic potentials (fEPSPs) were recorded in the stratum radiatum of the CA1 region in hippocampal slices. Responses were evoked by stimulation of the Schaffer collateral pathway using two electrodes. These stimulation electrodes (S1 and S2) were positioned equidistantly on both sides of the recording electrode and, by this means, two independent stimulation pathways could be used for the same CA1 recording region. For recording fEPSPs (measured as the first slope function), the recording electrode was placed in the CA1 apical dendritic layer and signals were amplified by a differential amplifier and digitized. […] The slope of fEPSPs was measured over time for 60 min and normalized to the baseline. […]

opioid receptors = assay: Off-target screening: opioid receptors; type: binding; details: screening assay
Method: (§2) To investigate potential off-target activity of dapansutrile, secondary pharmacological effects were assessed through in vitro screening assays. […] An evaluation of 68 critical transmembrane and soluble receptors, ion channels and monoamine transporters were performed for off-target effects of dapansutrile. An additional 69 receptors and enzymes were evaluated with dapansutrile for potential activity in a follow-on study that focused on enzymes involved in inflammatory cascades. A single identified target, the PDE4 enzyme, was inhibited in a concentration range of ≥100 μM (13 μg/mL) and was dose-responsive for effect, but subsequent studies were not conclusive.

APP/PS1 mice [2] = assay: Morris water maze test in APP/PS1 mice; type: in vivo
Method: as §1
Spatial memory formation and retention were assessed using the Morris water maze (MWM) assay. A 10 cm escape platform was submerged 1 cm below the water surface into a circular plastic pool filled up with opaque water. Three visual cues were positioned on the walls around the pool. A digital camera was installed above the center of the maze. Images will be acquired and transmitted to a PC running the tracking software ANY-maze (ANY-maze). On the first three days (pre-training) the mice were trained using a visible platform (the platform was placed above the water surface).
To assess spatial memory formation, the mice were trained to locate the hidden platform for 8 consecutive days. The escape latency of each trial (4 per day with an interval of 3-5 min) was recorded and analyzed by the tracking software. At training day 3 and at day 9, memory retention was assessed in a probe trial performed by removing the platform and analyzing the search pattern used by each mouse for a fixed time of 45 seconds.
The escape latency which describes the time mice need to find the hidden platform was measured and was analyzed as the mean value of the 4 trials each day and shown in FIG. 3A; all genotypes decreased the escape latency from day 1 to day 8. For example, on day 5, wildtype mice (N=8) needed 23.59±4.08 seconds to reach the platform. APP/PS1 (500 mg/kg/day dapansutrile treated) mice (N=5) needed 37.31±4.96 seconds, and APP/PS1 (1000 mg/kg dapansutrile treated) mice (N=6) needed 21.30±3.19 seconds (p value=0.021), compared to APP/PS1 (control food) mice (n=6) needed 42.04±6.89 seconds.
To provide the evidence for cognitive learning 24 hours after the last training session, a reverence test was performed (probe trial) on training day 9. Here, mice were tested in the water maze without the platform to escape and the time was measured in which quadrant the mice spend their time. We compare the mean time in percentage of the three non-target quadrants (NT) to the time in percentage of the target quadrant (TQ, platform was located during training period). […] Whereas there was no preference for a TQ over NT in APP/PS1 (control food) and APP/PS1 500 mg/kg/day (low dose).

PDE4 enzyme = assay: Off-target screening: PDE4 enzyme inhibition; type: biochemical
Method: as §2

APP/PS1 mice [3] = assay: Cytokine levels of brain homogenates of APP/PS1 mice (ELISA); type: in vivo; details: 3 months, vs control food
Method: as §1
One hemisphere of each mouse was homogenized in STKM-buffer and centrifuged for 10 min at 4° C. with 13,000 g. The supernatant of the brain lysate was collected and measured for pro-inflammatory mediators IL-6 and IL-1β by ELISA by diluting the sample 1:2. […] The IL-1β levels were reduced in APP/PS1 mice treated with dapansutrile at a low dose (500 mg/kg/day, p value=0.0287) and a medium dose (1000 mg/kg/day, p value=0.0368) compared to APP/PS1 mice fed with control food (FIG. 2B)

pro-IL-1 = assay: In vitro screening: inhibition of pro-IL-1; type: cell-based
Method: as §2

[4] = test system: NLRC4 inflammasome pathway; assay: In vitro screening: cytokine production via NLRC4 inflammasome pathway; type: cell-based
COX-2 = biological target: T1, COX-2 (Homo sapiens, UniProt P35354); assay: Off-target screening: COX-2; type: biochemical; details: screening assay
T1 sequence (P35354 18-604): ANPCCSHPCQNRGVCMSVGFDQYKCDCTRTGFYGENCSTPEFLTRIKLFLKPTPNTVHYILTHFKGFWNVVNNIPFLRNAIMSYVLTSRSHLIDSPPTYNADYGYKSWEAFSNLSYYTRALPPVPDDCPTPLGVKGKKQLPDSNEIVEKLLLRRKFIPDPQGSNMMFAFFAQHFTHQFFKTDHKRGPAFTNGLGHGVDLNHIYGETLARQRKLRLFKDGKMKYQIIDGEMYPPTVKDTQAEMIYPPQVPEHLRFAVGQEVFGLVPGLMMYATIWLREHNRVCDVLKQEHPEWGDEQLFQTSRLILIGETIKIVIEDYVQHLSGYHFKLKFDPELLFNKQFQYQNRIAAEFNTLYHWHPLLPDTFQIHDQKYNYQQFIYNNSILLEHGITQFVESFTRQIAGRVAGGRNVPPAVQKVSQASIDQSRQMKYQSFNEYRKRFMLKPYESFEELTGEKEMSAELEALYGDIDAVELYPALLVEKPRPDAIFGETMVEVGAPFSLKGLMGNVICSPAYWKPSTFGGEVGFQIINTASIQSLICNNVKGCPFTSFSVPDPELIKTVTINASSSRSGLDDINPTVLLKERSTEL
Method: as §2

COX-1 = COX-1 (Homo sapiens, UniProt P23219); assay: Off-target screening: COX-1; type: biochemical; details: screening assay
Method: as §2

IL-1β challenged mice = assay: IL-6 and MPO levels after IL-1β intraperitoneal challenge in treated mice (ELISA); type: in vivo; details: 200 mg/kg, 8 injections over 4 days
Method: Mice were treated with 200 mg/kg dapansutrile (OLT1177™) for 8 injections over 4 days. Mice were trained on a rotarod on day 3. Twelve hours after the last injection, mice were run on the rotarod for distance. One hour after the rotarod, mice were challenged with 60 ng IL-1β intraperitoneally; mice were then sacrificed 4 hours later. Whole blood, plasma, brain, and lung of the mice were collected. Whole blood was cultured, plasma was frozen. Brain was processed for cytokine analysis. Each group had N=5. Ex vivo samples were obtained from the brain of mice treated with vehicle or dapansutrile and subjected to exhaustive exercise.

pro-IL-18 = assay: In vitro screening: inhibition of pro-IL-18; type: cell-based
Method: as §2

[5] = test system: 68 critical transmembrane and soluble receptors, ion channels and monoamine transporters; additional 69 receptors and enzymes; assay: Off-target screening panels (68 receptors, ion channels, monoamine transporters; additional 69 receptors and enzymes); details: all targets other than PDE4
Method: as §2

[6] = test system: AIM2 inflammasome pathway; assay: In vitro screening: cytokine production via AIM2 inflammasome pathway; type: cell-based
[7] = exhaustive exercise, 60 ng IL-1β i.p., 4 hours later, vs vehicle

Sequence of COX-1 (P23219 24-599): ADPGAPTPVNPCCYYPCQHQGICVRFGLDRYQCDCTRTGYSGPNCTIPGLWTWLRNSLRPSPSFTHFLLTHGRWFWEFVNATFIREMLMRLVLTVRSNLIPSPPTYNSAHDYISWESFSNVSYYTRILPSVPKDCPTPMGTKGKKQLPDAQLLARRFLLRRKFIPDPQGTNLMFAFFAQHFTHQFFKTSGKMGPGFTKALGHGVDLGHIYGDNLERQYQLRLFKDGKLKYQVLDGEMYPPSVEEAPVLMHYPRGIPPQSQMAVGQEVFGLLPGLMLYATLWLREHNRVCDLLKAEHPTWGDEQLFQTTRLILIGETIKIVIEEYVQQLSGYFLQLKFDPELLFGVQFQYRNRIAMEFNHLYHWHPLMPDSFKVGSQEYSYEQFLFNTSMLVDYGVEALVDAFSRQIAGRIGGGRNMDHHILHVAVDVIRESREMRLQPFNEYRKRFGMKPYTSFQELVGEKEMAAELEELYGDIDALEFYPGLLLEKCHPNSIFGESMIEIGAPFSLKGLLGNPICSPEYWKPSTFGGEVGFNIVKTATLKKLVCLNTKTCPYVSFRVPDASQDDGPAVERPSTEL

Structure (SMILES): CS(=O)(=O)CCC#N [dapansutrile, 3-Methanesulfonylpropionitrile]
- LTP impairment in APP/PS1 mice ([1]; 1000 mg/kg/day): rescued
- normalized mean LTP of last 5 minutes of recording ([1]; low dose (500 mg/kg/day), N=2, n=8): 1.198
- normalized mean LTP of last 5 minutes of recording ([1]; medium dose (1000 mg/kg/day), N=1, n=7): 1.469
- LTP deficit in APP/PS1 mice ([1]; low dose, 500 mg/kg/day): not able to improve
- interaction with opioid receptors (opioid receptors): no interaction
- escape latency (time to reach the hidden platform) (APP/PS1 mice [2]; 500 mg/kg/day, day 5, N=5, APP/PS1 control food 42.04±6.89, wildtype 23.59±4.08): 37.31 ± 4.96 s
- preference for the target quadrant (TQ) over non-target quadrants (NT), probe trial (APP/PS1 mice [2]; 500 mg/kg/day, day 9): no preference
- escape latency (time to reach the hidden platform) (APP/PS1 mice [2]; 1000 mg/kg, day 5, N=6, p value=0.021, APP/PS1 control food 42.04±6.89, wildtype 23.59±4.08): 21.30 ± 3.19 s
- preference for the target quadrant (TQ) over non-target quadrants (NT), probe trial (APP/PS1 mice [2]; 1000 mg/kg/day, day 9, p value=0.0001): significant preference
- concentration range in which PDE4 enzyme was inhibited (PDE4 enzyme; dose-responsive, subsequent studies not conclusive): ≥ 100 µM
- concentration range in which PDE4 enzyme was inhibited (PDE4 enzyme; same bound given in μg/mL): ≥ 13 µg/mL
- IL-1β levels in brain lysate (APP/PS1 mice [3]; 500 mg/kg/day oral via feed, p value=0.0287): reduced
- IL-6 levels in brain lysate (APP/PS1 mice [3]; 1000 mg/kg/day oral via feed, p value=0.0035): reduced
- IL-1β levels in brain lysate (APP/PS1 mice [3]; 1000 mg/kg/day oral via feed, p value=0.0368): reduced
- inhibition of pro-IL-1 (pro-IL-1): no inhibition
- inhibitory effect on cytokine production via the NLRC4 inflammasome pathway [4]: no inhibitory effect
- direct effects on COX-2 (COX-2): no direct effects
- direct effects on COX-1 (COX-1): no direct effects
- level of systemic IL-1β after IL-1β stimulation (IL-1β challenged mice; data not shown): also reduced
- level of systemic IL-6 after IL-1β stimulation (IL-1β challenged mice; data not shown): also reduced
- level of systemic MPO after IL-1β stimulation (IL-1β challenged mice; data not shown): also reduced
- IL-6 level in the brain (IL-1β challenged mice; [7]): reduced levels
- myeloperoxidase (MPO) level in the brain (IL-1β challenged mice; [7]): reduced levels
- inhibition of pro-IL-18 (pro-IL-18): no inhibition
- other effects in the screening assays [5]: No other effects were noted
- inhibitory effect on cytokine production via the AIM2 inflammasome pathway [6]: no inhibitory effect
